# Measured values taken from PubChem BioAssay (NCI).
#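 Method: 48-hour compound exposure of cells in 96-well plates, five concentrations, linear interpolation of endpoints. TGI: concentration producing complete growth inhibition.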
# What was measured:
# Assay in all cases: NCI-60 cell line screen, 48 h
# DLD-1 colon = test system: DLD-1 colon
# UACC-257 melanoma = test system: UACC-257 melanoma
# DMS 114 small cell lung = test system: DMS 114 small cell lung
# A549 NSCLC = test system: A549 NSCLC
# SNB-75 CNS = test system: SNB-75 CNS
# IGROV1 ovarian = test system: IGROV1 ovarian
# LOX IMVI melanoma = test system: LOX IMVI melanoma
# MOLT-4 leukemia = test system: MOLT-4 leukemia
# K-562 leukemia = test system: K-562 leukemia
# HCT-15 colon = test system: HCT-15 colon
# 786-0 renal = test system: 786-0 renal
# M14 melanoma = test system: M14 melanoma
# HOP-62 NSCLC = test system: HOP-62 NSCLC
# HT29 colon = test system: HT29 colon
# KM20L2 colon = test system: KM20L2 colon
# HCC-2998 colon = test system: HCC-2998 colon
# NCI-H522 lung = test system: NCI-H522 lung
# CCRF-CEM leukemia = test system: CCRF-CEM leukemia
# SF-268 CNS = test system: SF-268 CNS
# SF-539 CNS = test system: SF-539 CNS
# KM12 colon = test system: KM12 colon
# SK-MEL-2 melanoma = test system: SK-MEL-2 melanoma
# ACHN renal = test system: ACHN renal
# TK-10 renal = test system: TK-10 renal
# NCI-H226 lung = test system: NCI-H226 lung
# SF-295 CNS = test system: SF-295 CNS
# MALME-3M melanoma = test system: MALME-3M melanoma
# SNB-78 CNS = test system: SNB-78 CNS
# NCI-H460 lung = test system: NCI-H460 lung
# HCT-116 colon = test system: HCT-116 colon
# EKVX NSCLC = test system: EKVX NSCLC
# DMS 273 small cell lung = test system: DMS 273 small cell lung
# CAKI-1 renal = test system: CAKI-1 renal
# A498 renal = test system: A498 renal
# SN12C renal = test system: SN12C renal
# SNB-19 CNS = test system: SNB-19 CNS
# COLO 205 colon = test system: COLO 205 colon
# UO-31 renal = test system: UO-31 renal
# M19-MEL melanoma = test system: M19-MEL melanoma
# OVCAR-8 ovarian = test system: OVCAR-8 ovarian
# U251 CNS = test system: U251 CNS
# RPMI-8226 leukemia = test system: RPMI-8226 leukemia
# SK-MEL-5 melanoma = test system: SK-MEL-5 melanoma
# OVCAR-3 ovarian = test system: OVCAR-3 ovarian
# RXF-631 renal = test system: RXF-631 renal
# UACC-62 melanoma = test system: UACC-62 melanoma
# SW-620 colon = test system: SW-620 colon
# SK-OV-3 ovarian = test system: SK-OV-3 ovarian
# OVCAR-5 ovarian = test system: OVCAR-5 ovarian
# RXF 393 renal = test system: RXF 393 renal
# SK-MEL-28 melanoma = test system: SK-MEL-28 melanoma
# SR leukemia = test system: SR leukemia
# HL-60(TB) leukemia = test system: HL-60(TB) leukemia
# HOP-18 NSCLC = test system: HOP-18 NSCLC
# HOP-92 NSCLC = test system: HOP-92 NSCLC
# NCI-H23 lung = test system: NCI-H23 lung
# LXFL 529 NSCLC = test system: LXFL 529 NSCLC
# OVCAR-4 ovarian = test system: OVCAR-4 ovarian
# XF 498 CNS = test system: XF 498 CNS
smiles,measurement,setting,value
C[n+]1cc(C(O)c2ccc3c(c2)OCO3)c2ccccc2c1 (centres undefined),TGI,DLD-1 colon,> 100 µM
same,TGI,UACC-257 melanoma,66.5 µM
same,TGI,DMS 114 small cell lung,83.5 µM
same,TGI,A549 NSCLC,> 100 µM
same,TGI,SNB-75 CNS,> 100 µM
same,TGI,IGROV1 ovarian,> 100 µM
same,TGI,LOX IMVI melanoma,> 100 µM
same,TGI,MOLT-4 leukemia,55.5 µM
same,TGI,K-562 leukemia,> 100 µM
same,TGI,HCT-15 colon,> 100 µM
same,TGI,786-0 renal,> 100 µM
same,TGI,M14 melanoma,91.7 µM
same,TGI,HOP-62 NSCLC,> 100 µM
same,TGI,HT29 colon,> 100 µM
same,TGI,KM20L2 colon,> 100 µM
same,TGI,HCC-2998 colon,> 100 µM
same,TGI,NCI-H522 lung,48.1 µM
same,TGI,CCRF-CEM leukemia,> 100 µM
same,TGI,SF-268 CNS,> 100 µM
same,TGI,SF-539 CNS,> 100 µM
same,TGI,KM12 colon,> 100 µM
same,TGI,SK-MEL-2 melanoma,96.1 µM
same,TGI,ACHN renal,> 100 µM
same,TGI,TK-10 renal,> 100 µM
same,TGI,NCI-H226 lung,> 100 µM
same,TGI,SF-295 CNS,> 100 µM
same,TGI,MALME-3M melanoma,65 µM
same,TGI,SNB-78 CNS,> 100 µM
same,TGI,NCI-H460 lung,> 100 µM
same,TGI,HCT-116 colon,> 100 µM
same,TGI,EKVX NSCLC,> 100 µM
same,TGI,DMS 273 small cell lung,> 100 µM
same,TGI,CAKI-1 renal,69.4 µM
same,TGI,A498 renal,> 100 µM
same,TGI,SN12C renal,> 100 µM
same,TGI,SNB-19 CNS,> 100 µM
same,TGI,COLO 205 colon,> 100 µM
same,TGI,UO-31 renal,92.5 µM
same,TGI,M19-MEL melanoma,> 100 µM
same,TGI,OVCAR-8 ovarian,> 100 µM
same,TGI,U251 CNS,> 100 µM
same,TGI,RPMI-8226 leukemia,98.8 µM
same,TGI,SK-MEL-5 melanoma,44.2 µM
same,TGI,OVCAR-3 ovarian,> 100 µM
same,TGI,RXF-631 renal,> 100 µM
same,TGI,UACC-62 melanoma,> 100 µM
same,TGI,SW-620 colon,> 100 µM
same,TGI,SK-OV-3 ovarian,> 100 µM
same,TGI,OVCAR-5 ovarian,> 100 µM
same,TGI,RXF 393 renal,62.5 µM
O=C1c2ccc3c4ccccc4n(Cc4ccccc4)c3c2C(=O)N1c1ccccc1,TGI,DLD-1 colon,37.3 µM
same,TGI,UACC-257 melanoma,29.9 µM
same,TGI,SK-MEL-28 melanoma,31.3 µM
same,TGI,DMS 114 small cell lung,34.1 µM
same,TGI,A549 NSCLC,34.9 µM
same,TGI,SNB-75 CNS,27.7 µM
same,TGI,SR leukemia,22.1 µM
same,TGI,IGROV1 ovarian,35.7 µM
same,TGI,LOX IMVI melanoma,31.4 µM
same,TGI,HL-60(TB) leukemia,> 44.7 µM
same,TGI,MOLT-4 leukemia,9.54 µM
same,TGI,K-562 leukemia,34.2 µM
same,TGI,HCT-15 colon,22.7 µM
same,TGI,786-0 renal,26.7 µM
same,TGI,M14 melanoma,27.9 µM
same,TGI,HOP-62 NSCLC,> 57.6 µM
same,TGI,HT29 colon,39.2 µM
same,TGI,KM20L2 colon,45.2 µM
same,TGI,HCC-2998 colon,37.2 µM
same,TGI,NCI-H522 lung,6.93 µM
same,TGI,HOP-18 NSCLC,24.4 µM
same,TGI,CCRF-CEM leukemia,3.68 µM
same,TGI,HOP-92 NSCLC,26.9 µM
same,TGI,SF-268 CNS,40.8 µM
same,TGI,SF-539 CNS,31.1 µM
same,TGI,NCI-H23 lung,17.6 µM
same,TGI,KM12 colon,30.6 µM
same,TGI,SK-MEL-2 melanoma,46.5 µM
same,TGI,ACHN renal,> 50.5 µM
same,TGI,TK-10 renal,29 µM
same,TGI,NCI-H226 lung,29.7 µM
same,TGI,SF-295 CNS,28.3 µM
same,TGI,MALME-3M melanoma,29.9 µM
same,TGI,SNB-78 CNS,71.7 µM
same,TGI,NCI-H460 lung,> 100 µM
same,TGI,HCT-116 colon,30 µM
same,TGI,EKVX NSCLC,39.4 µM
same,TGI,DMS 273 small cell lung,24.9 µM
same,TGI,CAKI-1 renal,25.1 µM
same,TGI,A498 renal,45.9 µM
same,TGI,LXFL 529 NSCLC,27.7 µM
same,TGI,SN12C renal,30.1 µM
same,TGI,SNB-19 CNS,42.3 µM
same,TGI,COLO 205 colon,11.1 µM
same,TGI,UO-31 renal,30.1 µM
same,TGI,M19-MEL melanoma,33.2 µM
same,TGI,OVCAR-8 ovarian,31.9 µM
same,TGI,U251 CNS,29.3 µM
same,TGI,RPMI-8226 leukemia,40.1 µM
same,TGI,SK-MEL-5 melanoma,29.9 µM
same,TGI,OVCAR-3 ovarian,11.9 µM
same,TGI,RXF-631 renal,36.4 µM
same,TGI,UACC-62 melanoma,31.7 µM
same,TGI,SW-620 colon,20.1 µM
same,TGI,SK-OV-3 ovarian,> 55.6 µM
same,TGI,OVCAR-5 ovarian,33 µM
same,TGI,RXF 393 renal,26.7 µM
same,TGI,OVCAR-4 ovarian,23.1 µM
CC(C)(C=O)CC(C#N)/C(=N\NC(N)=O)C(=O)Nc1ccccc1C(N)=O (centres undefined),TGI,UACC-257 melanoma,> 100 µM
same,TGI,SK-MEL-28 melanoma,> 100 µM
same,TGI,A549 NSCLC,> 100 µM
same,TGI,SR leukemia,> 100 µM
same,TGI,IGROV1 ovarian,> 100 µM
same,TGI,LOX IMVI melanoma,> 100 µM
same,TGI,HL-60(TB) leukemia,> 100 µM
same,TGI,MOLT-4 leukemia,> 100 µM
same,TGI,K-562 leukemia,> 100 µM
same,TGI,HCT-15 colon,> 100 µM
same,TGI,786-0 renal,> 100 µM
same,TGI,M14 melanoma,> 100 µM
same,TGI,HOP-62 NSCLC,> 100 µM
same,TGI,HT29 colon,> 100 µM
same,TGI,KM20L2 colon,> 100 µM
same,TGI,HCC-2998 colon,> 100 µM
same,TGI,NCI-H522 lung,> 100 µM
same,TGI,CCRF-CEM leukemia,> 100 µM
same,TGI,HOP-92 NSCLC,> 100 µM
same,TGI,SF-268 CNS,> 100 µM
same,TGI,SF-539 CNS,> 100 µM
same,TGI,NCI-H23 lung,> 100 µM
same,TGI,KM12 colon,> 100 µM
same,TGI,SK-MEL-2 melanoma,> 100 µM
same,TGI,ACHN renal,> 100 µM
same,TGI,TK-10 renal,> 100 µM
same,TGI,NCI-H226 lung,> 100 µM
same,TGI,SF-295 CNS,> 100 µM
same,TGI,MALME-3M melanoma,> 100 µM
same,TGI,SNB-78 CNS,> 100 µM
same,TGI,NCI-H460 lung,> 100 µM
same,TGI,HCT-116 colon,> 100 µM
same,TGI,EKVX NSCLC,> 100 µM
same,TGI,CAKI-1 renal,> 100 µM
same,TGI,A498 renal,> 100 µM
same,TGI,LXFL 529 NSCLC,> 100 µM
same,TGI,SN12C renal,> 100 µM
same,TGI,SNB-19 CNS,> 100 µM
same,TGI,UO-31 renal,> 100 µM
same,TGI,M19-MEL melanoma,> 100 µM
same,TGI,OVCAR-8 ovarian,> 100 µM
same,TGI,U251 CNS,> 100 µM
same,TGI,RPMI-8226 leukemia,> 100 µM
same,TGI,SK-MEL-5 melanoma,> 100 µM
same,TGI,OVCAR-3 ovarian,> 100 µM
same,TGI,UACC-62 melanoma,> 100 µM
same,TGI,SW-620 colon,> 100 µM
same,TGI,SK-OV-3 ovarian,> 100 µM
same,TGI,OVCAR-5 ovarian,> 100 µM
same,TGI,XF 498 CNS,> 100 µM
same,TGI,OVCAR-4 ovarian,> 100 µM
